Reference: PubChem BioAssay AID1671243

Molecular target: Casein kinase I isoform alpha (Homo sapiens) (UniProt P48729)
Assay: inhibition of CK1 alpha activity – biochemical, Z'-LYTE, FRET, direct format, dose response (AID 1671243)
Details: Z'-LYTE FRET kinase activity assay

Sequence of Casein kinase I isoform alpha (Homo sapiens) (P48729 whole entry, looked up, canonical isoform): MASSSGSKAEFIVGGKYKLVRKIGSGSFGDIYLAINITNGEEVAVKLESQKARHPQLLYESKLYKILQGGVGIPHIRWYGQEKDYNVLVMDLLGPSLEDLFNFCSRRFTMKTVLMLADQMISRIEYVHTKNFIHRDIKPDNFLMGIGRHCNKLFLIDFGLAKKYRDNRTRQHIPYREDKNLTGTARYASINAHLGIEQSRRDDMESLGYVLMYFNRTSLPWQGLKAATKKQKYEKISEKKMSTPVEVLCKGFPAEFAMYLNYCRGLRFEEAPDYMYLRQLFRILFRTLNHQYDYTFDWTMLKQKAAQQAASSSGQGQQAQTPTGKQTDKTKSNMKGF

IC50: 17.6 µM
SMILES: Brc1c(Br)c(Br)c2n[nH]nc2c1Br
